Experimental data taken from patent publication US20060205724A1, “Antagonizing nk-1 receptors inhibits consumption of substances of abuse” (The Regents of the University of California, priority 2002, published 2006).

Columns and labels:
[1] = test system: rat; assay: self-administration of ethanol by a rat (ethanol intake, water intake, ethanol preference); assay type: in vivo
Excerpt: The graphs show ethanol intake, water intake, and ethanol preference.
FIG. 2 illustrates the effect of administration of the NK1 receptor antagonist LY303870 on self-administration of alcohol by a rat.
Without being bound to a particular theory, it is believed that this effect may be due to failure of WIN 51,708 to cross the blood-brain barrier.

[2] = test system: rats; assay: loss of righting reflex (measure of intoxication) in rats administered ethanol; assay type: in vivo, rat; conditions: rats given 3 g/kg of ethanol; vs vehicle-treated animals
Excerpt: FIG. 1 illustrates the effect of an NK1 receptor antagonist (LY303870) on the loss of righting reflex in rats administrated ethanol at 3 and 4 g/kg. *P<0.05 vs vehicle-treated animals. n=9-10 per group.

| Compound | ethanol consumption [1] | ethanol preference (ethanol as compared to water) [1] | loss of righting reflex (time the test animals were "drunk") [2] | self-administration of ethanol ([1]; 2.5 mg/kg or greater) |
| --- | --- | --- | --- | --- |
| C#C[C@]1(O)CC[C@H]2[C@@H]3CC[C@H]4Cc5nc6nc7ccccc7n6cc5C[C@]4(C)[C@H]3CC[C@@]21C [WIN 51,708] | did not have a significant effect | did not alter preference |  |  |
| COc1ccccc1CN(C[C@@H](Cc1c[nH]c2ccccc12)NC(=O)CN1CCC(N2CCCCC2)CC1)C(C)=O [LY303870] |  | reduced preference for ethanol as compared to water | reduced the time the test animals were “drunk” | significant reduction in self-administration of ethanol |
